Laboratory results from patent US20080286315A1, “Methionine Enkephalin as an Adjuvant for Vaccine Immunizations” (Penta Biotech, Inc., priority 2007, published 2008).

Columns and labels:
Type in all cases: cell-based, IRM-2 mice
immature dendritic cells = assay: Dendritic cell density and proliferation with different concentrations of MEK (cell counting / MTT assay); settings: for Cell Density: 9 days culture with IL-4 and GM-CSF; for Increase Percent: control = 100.0
Description: (§1) Immature dendritic cells were isolated from spleens of IRM-2 mice with lymphocyte separation solution. The method used was adapted from a method of isolating lymphocytes using a centrifugation technique. First, diluted defibrinated blood was layered on a solution of sodium metrizoate and Dextran or Ficoll® and centrifuged at low speeds for 30 minutes. […] Mononuclear cells (lymphocytes and monocytes) and platelets are contained in the banded plasma-lymphocyte separation medium interphase due to their density. Erythrocytes and granulocytes migrate through the gradient and form a pellet to the bottom of the tube. Lymphocytes were recovered by aspirating the plasma layer and removing the cells. After proper washing and treatment, cells were suspended in RPMI-1640 containing 10% FCS and incubated in a CO2-incubator (37° C., 5% CO2) for 2 hours before use.
(§2) The immature dendritic cells were divided into 6 groups and were centrifuged to remove the supernatants. RPMI-1640 containing 10 ng/ml IL-4, 100 ng/ml GM-CSF, 10% FCS, and MEK at either 0 ng/ml, 7.5 ng/ml, 15 ng/ml, 30 ng/ml, 60 ng/ml or 120 ng/ml was then added to the cells. The final cell density was 2×10^5 cells/ml. Cells were returned to the CO2-incubator and the media were replaced in half volumes every other day starting on the 3rd day. Cells were allowed to grow for 9 days and thereafter cell numbers were counted with an inverted phase-contrasted microscope. The group of cells having the highest density was regarded as having the most optimum conditions in terms of concentration for cytokines. Cell density was determined using the MTT [3-(4,5-Dimethylthiazol-2-yl)-2,5-Diphenyltetrazolium Bromide] assay, using methods known in the art. MEK facilitated the growth and multiplication of dendritic cells in a concentration dependent fashion. The effects were greatest with a MEK concentration at around 60 ng/ml and then decreased thereafter as MEK concentration increased.

dendritic cells [1] = assay: Dendritic cell surface marker expression (FITC antibodies to CD11c and CD80, flow cytometry); settings: day 9
Description: as §1, §2
Cells isolated and cultured as described above were processed on the 9th day with the addition of FITC labeled antibodies to CD11c and CD80. CD11c is the most specific cell surface marker for mature dendritic cells. CD80 is another marker that is expressed on mature dendritic cells. Stained cells were analyzed with a flow cell cytometer and cells expressing fluorescence markers were regarded as positive. The positive rates were analyzed and calculated using Bios Consort 30 software.

cultured dendritic cells = assay: IL-12 levels in supernatants of cultured dendritic cells (IL-12 ELISA); settings: supernatant day 9
Description: as §1, §2
To further characterize the cultured cells, cell culture supernatants were collected on the 9th day of incubation and were assayed according to the procedures defined in the IL-12 ELISA Assay Kit obtained from eBioscience, USA. IL-12 is a cytokine known to be secreted by mature dendritic cells.

dendritic cells [2] = assay: Micrographs of dendritic cells (400x); settings: 60 ng/ml MEK; with IL-4 and GM-CSF
Excerpt: FIGS. 1 and 2 show micrographs of dendritic cells magnified 400×. Cells were isolated and cultured as described above.

With `CSCC[C@H](NC(=O)[C@@H](Cc1ccccc1)NC(=O)CNC(=O)CNC(=O)[C@H](N)Cc1ccc(O)cc1)C(=O)O` [MEK, methionine enkephalin] the “Cell Density” value (immature dendritic cells; MEK 7.5 ng/ml, start 2x10^5 cells/ml) was 2.2 ± 0.1 10^5/ml, the “Increase Percent” value (immature dendritic cells; MEK 7.5 ng/ml) was 127.1% and the “Cell Density” value (immature dendritic cells; MEK 15 ng/ml) was 2.5 ± 0.2 10^5/ml. The “Increase Percent” value (immature dendritic cells; MEK 15 ng/ml) was 133.3%, the “Cell Density” value (immature dendritic cells; MEK 30 ng/ml) was 2.9 ± 1.2 10^5/ml and the “Increase Percent” value (immature dendritic cells; MEK 30 ng/ml) was 159.2%. The “Cell Density” value (immature dendritic cells; MEK 60 ng/ml) was 4.8 ± 0.2 10^5/ml, the “Increase Percent” value (immature dendritic cells; MEK 60 ng/ml) was 246.5% and the “Cell Density” value (immature dendritic cells; MEK 120 ng/ml) was 3.1 ± 0.1 10^5/ml. For the same compound, the “Increase Percent” value (immature dendritic cells; MEK 120 ng/ml) was 165.5%, the “MEK concentration with greatest effect on growth and multiplication of dendritic cells” value (immature dendritic cells; tested 7.5-120 ng/ml, concentration dependent) was “around 60 ng/ml” and the “CD11C(+) %” value (dendritic cells [1]; MEK 7.5 ng/ml, control 47.2) was 49.9%. For the same compound, the “CD80(+) %” value (dendritic cells [1]; MEK 7.5 ng/ml, control 50.3) was 51.3%, the “CD11C(+) %” value (dendritic cells [1]; MEK 15 ng/ml) was 51.3% and the “CD80(+) %” value (dendritic cells [1]; MEK 15 ng/ml) was 54.1%. The “CD11C(+) %” value (dendritic cells [1]; MEK 30 ng/ml) was 55.6%, the “CD80(+) %” value (dendritic cells [1]; MEK 30 ng/ml) was 58.7% and the “CD11C(+) %” value (dendritic cells [1]; MEK 60 ng/ml) was 62.7%. The “CD80(+) %” value (dendritic cells [1]; MEK 60 ng/ml) was 64.6%, the “CD11C(+) %” value (dendritic cells [1]; MEK 120 ng/ml) was 57.3% and the “CD80(+) %” value (dendritic cells [1]; MEK 120 ng/ml) was 63.3%. The “IL-12 Level” value (cultured dendritic cells; MEK 7.5 ng/ml, control 68) was 102 ± 1.1 pg/mL, the “IL-12 Level” value (cultured dendritic cells; MEK 15 ng/ml) was 126 ± 0.4 pg/mL and the “IL-12 Level” value (cultured dendritic cells; MEK 30 ng/ml) was 175 ± 1.6 pg/mL. For the same compound, the “IL-12 Level” value (cultured dendritic cells; MEK 60 ng/ml) was 256 ± 0.3 pg/mL, the “IL-12 Level” value (cultured dendritic cells; MEK 120 ng/ml) was 227 ± 1.9 pg/mL and the “cell density in micrographs versus cells not treated with MEK” value (dendritic cells [2]) was “increase in cell density”. The “cell processes (veils or dendrites) on the dendritic cells versus cells not treated with MEK” value (dendritic cells [2]) was “increase in cell processes”.
